ChEMBL document CHEMBL4376858, “Structure-Activity Relationships of Novel Thiazole-Based Modafinil Analogues Acting at Monoamine Transporters” (J Med Chem, 2020)
Active and inactive are the calls of the source. Unless noted, the calls are words filed in the database; no cut-off is given here.

What was measured:
[1] = target: T1, Sodium-dependent dopamine transporter (Homo sapiens, UniProt Q01959); assay: Inhibition of wild type human dopamine transporter expressed in HEK293 cells assessed as inhibition of [3H]dopamine reuptake preincubated for 5 mins followed by [3H]dopamine addition and measured after 1 min by liquid scintillation analysis; assay type: cell-based; conditions: read-out: IC50
[2] = target: T2, Sodium-dependent noradrenaline transporter (Homo sapiens, UniProt P23975); assay: Inhibition of wild type human NET expressed in HEK293 cells assessed as inhibition of [3H]-MPP+ reuptake preincubated for 5 mins followed by [3H]MPP+ addition and measured after 3 mins by liquid scintillation counting analysis; assay type: cell-based
[3] = target: Sodium-dependent serotonin transporter (Homo sapiens, UniProt P31645); assay type: cell-based, HEK293
Description: Inhibition of wild type human SERT expressed in HEK293 cells assessed as inhibition of [3H]-5HT reuptake preincubated for 5 mins followed by [3H]5HT addition and measured after 1 min by liquid scintillation counting analysis

[4] = Cardiotoxicity in human Cor.4U hiPSC-CM cells assessed as early after depolarization at 10 uM measured after 30 mins by FluoVolt dye based fluorescence assay; assay type: toxicity; conditions: 0.5 h
[5] = Cardiotoxicity in human Cor.4U hiPSC-CM cells assessed as effect on action potential duration at 10 uM measured after 30 mins by FluoVolt dye based fluorescence assay; assay type: toxicity; conditions: 0.5 h
[6] = Cardiotoxicity in human Cor.4U hiPSC-CM cells assessed as effect on action potential shape at 10 uM measured after 30 mins by FluoVolt dye based fluorescence assay; assay type: toxicity; conditions: 0.5 h
[7] = Half life in Sprague-Dawley rat at 10 mg/kg, ip compound dissolved in DMSO/Tween 80/Saline by HPLC-MS analysis; assay type: ADME, organism-based; conditions: in vivo
[8] = AUC(0 to infinity) in Sprague-Dawley rat at 10 mg/kg, ip compound dissolved in DMSO/Tween 80/Saline by HPLC-MS analysis; assay type: ADME, organism-based; set-up: dose 10 mg/kg, time infinity, route intraperitoneal; conditions: in vivo
[9] = target: T2, Sodium-dependent noradrenaline transporter; assay: Inhibition of wild type human NET expressed in HEK293 cells assessed as inhibition of [3H]-MPP+ reuptake preincubated for 8 mins followed by [3H]MPP+ addition and measured after 3 mins by liquid scintillation counting analysis; assay type: cell-based
[10] = target: T1, Sodium-dependent dopamine transporter; assay: Inhibition of human DAT expressed in HEK293 cells preloaded with [3H]-MPP+ assessed as reduction in D-amphetamine-induced tritium efflux at 10 uM treated with compound prior to amphetamine challenge measured every 4 mins by liquid scintillation counting analysis; assay type: cell-based
[11] = Neurotoxicity in rat cortical neuron assessed as inhibition of valid neuron count incubated for 72 hrs by Hoechst 33342 staining based ArrayScan analysis; assay type: toxicity, cell-based, Cortical neurone; conditions: rat cortical neurons
[12] = Neurotoxicity in rat cortical neuron assessed as inhibition of neurite outgrowth by measuring mean neurite average length incubated for 72 hrs by Hoechst 33342 staining based ArrayScan analysis; assay type: toxicity, cell-based, Cortical neurone; conditions: rat cortical neurons
[13] = Neurotoxicity in rat cortical neuron assessed as inhibition of neurite total length per neuron incubated for 72 hrs by Hoechst 33342 staining based ArrayScan analysis; assay type: toxicity, cell-based, Cortical neurone; conditions: rat cortical neurons
[14] = Plasma concentration in Sprague-Dawley rat at 7.5 mg/kg, ip compound dissolved in 40% Kolliphor-EL in water measured after 1 hr by LC-MS/MS analysis; assay type: ADME, organism-based
[15] = Plasma concentration in Sprague-Dawley rat at 7.5 mg/kg, ip compound dissolved in 40% Kolliphor-EL in water measured after 3 hrs by LC-MS/MS analysis; assay type: ADME, organism-based
[16] = Plasma concentration in Sprague-Dawley rat at 7.5 mg/kg, ip compound dissolved in 40% Kolliphor-EL in water measured after 7 hrs by LC-MS/MS analysis; assay type: ADME, organism-based
[17] = Plasma concentration in Sprague-Dawley rat at 7.5 mg/kg, ip compound dissolved in 40% Kolliphor-EL in water measured after 10 hrs by LC-MS/MS analysis; assay type: ADME, organism-based
[18] = Drug level in Sprague-Dawley rat brain at 7.5 mg/kg, ip compound dissolved in 40% Kolliphor-EL in water measured after 1 hr by LC-MS/MS analysis; assay type: ADME, organism-based; conditions: read-out: Ct
[19] = Drug level in Sprague-Dawley rat brain at 7.5 mg/kg, ip compound dissolved in 40% Kolliphor-EL in water measured after 3 hrs by LC-MS/MS analysis; assay type: ADME, organism-based; conditions: read-out: Ct
[20] = Drug level in Sprague-Dawley rat brain at 7.5 mg/kg, ip compound dissolved in 40% Kolliphor-EL in water measured after 7 hrs by LC-MS/MS analysis; assay type: ADME, organism-based; conditions: read-out: Ct
[21] = Drug level in Sprague-Dawley rat brain at 7.5 mg/kg, ip compound dissolved in 40% Kolliphor-EL in water measured after 10 hrs by LC-MS/MS analysis; assay type: ADME, organism-based; conditions: in vivo, BLD = below limit of detection
Rattus norvegicus [22] = assay: Increase in extracellular dopamine level in Sprague-Dawley rat nucleus accumbens in brain at 1 mg/kg, ip measured after 50 mins by RP-HPLC analysis based microdialysis method; assay type: functional, organism-based
Rattus norvegicus [23] = assay: Increase in extracellular dopamine level in Sprague-Dawley rat nucleus accumbens in brain at 10 mg/kg, ip measured after 50 mins by RP-HPLC analysis based microdialysis method relative to control; assay type: functional
[24] = target: T1, Sodium-dependent dopamine transporter; assay: Potency index, ratio of modafinil IC50 to compound IC50 for wild type human dopamine transporter expressed in HEK293 cells assessed as inhibition of [3H]dopamine reuptake preincubated for 5 mins followed by [3H]dopamine addition and measured after 1 min by liquid scintillation analysis; assay type: cell-based
[25] = target: T1, Sodium-dependent dopamine transporter; assay: Potency index, ratio of (R)-modafinil IC50 to compound IC50 for wild type human dopamine transporter expressed in HEK293 cells assessed as inhibition of [3H]dopamine reuptake preincubated for 5 mins followed by [3H]dopamine addition and measured after 1 min by liquid scintillation analysis; assay type: cell-based
[26] = target: T1, Sodium-dependent dopamine transporter; assay: Inhibition of human DAT expressed in HEK293 cells preloaded with [3H]-MPP+ assessed as decrease in tritium efflux at 10 uM measured every 4 mins by liquid scintillation counting analysis; assay type: cell-based
[27] = Ratio of IC50 for neurotoxicity against rat cortical neuron assessed as inhibition of valid neuron count by ArrayScan analysis to IC50 for wild type human dopamine transporter expressed in HEK293 cells
[28] = Ratio of IC50 for neurotoxicity against rat cortical neuron assessed as inhibition of mean neurite average length by ArrayScan analysis to IC50 for wild type human dopamine transporter expressed in HEK293 cells
[29] = Ratio of IC50 for neurotoxicity against rat cortical neuron assessed as inhibition of neurite total length per neuron by ArrayScan analysis to IC50 for wild type human dopamine transporter expressed in HEK293 cells
[30] = Half life in Sprague-Dawley rat at 7.5 mg/kg, ip compound dissolved in 40% Kolliphor-EL in water by LC-MS/MS analysis; assay type: ADME, organism-based; conditions: in vivo
[31] = AUC(0 to infinity) in Sprague-Dawley rat at 7.5 mg/kg, ip compound dissolved in 40% Kolliphor-EL in water by LC-MS/MS analysis; assay type: ADME, organism-based; set-up: dose 7.5 mg/kg, time infinity, route intraperitoneal; conditions: in vivo
[32] = Plasma concentration in Sprague-Dawley rat at 10 mg/kg, ip compound dissolved in DMSO/Tween 80/Saline measured after 1 hr by HPLC-MS analysis; assay type: ADME, organism-based
Cortical neurone = assay: Cytotoxicity in rat cortical neuron assessed as inhibition of cell viability incubated for 72 hrs by Hoechst 33342 staining based ArrayScan analysis

Chain of Sodium-dependent serotonin transporter (P31645 whole entry): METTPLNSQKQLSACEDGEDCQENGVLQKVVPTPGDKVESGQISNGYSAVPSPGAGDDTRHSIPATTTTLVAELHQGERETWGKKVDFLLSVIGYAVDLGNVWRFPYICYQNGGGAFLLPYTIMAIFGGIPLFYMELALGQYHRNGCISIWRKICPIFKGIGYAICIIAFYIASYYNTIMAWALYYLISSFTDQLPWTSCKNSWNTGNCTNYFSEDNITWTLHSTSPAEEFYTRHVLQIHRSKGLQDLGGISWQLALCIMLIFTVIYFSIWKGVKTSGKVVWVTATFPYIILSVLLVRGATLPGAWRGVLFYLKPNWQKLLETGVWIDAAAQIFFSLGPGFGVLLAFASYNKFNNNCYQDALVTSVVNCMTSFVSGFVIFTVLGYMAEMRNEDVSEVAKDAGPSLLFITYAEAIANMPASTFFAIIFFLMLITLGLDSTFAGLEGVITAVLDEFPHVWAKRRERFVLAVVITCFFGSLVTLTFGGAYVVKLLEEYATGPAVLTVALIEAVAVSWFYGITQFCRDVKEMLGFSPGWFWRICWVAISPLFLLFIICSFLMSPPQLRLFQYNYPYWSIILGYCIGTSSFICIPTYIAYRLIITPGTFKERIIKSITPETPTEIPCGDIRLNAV
T2 sequence (P23975 whole entry): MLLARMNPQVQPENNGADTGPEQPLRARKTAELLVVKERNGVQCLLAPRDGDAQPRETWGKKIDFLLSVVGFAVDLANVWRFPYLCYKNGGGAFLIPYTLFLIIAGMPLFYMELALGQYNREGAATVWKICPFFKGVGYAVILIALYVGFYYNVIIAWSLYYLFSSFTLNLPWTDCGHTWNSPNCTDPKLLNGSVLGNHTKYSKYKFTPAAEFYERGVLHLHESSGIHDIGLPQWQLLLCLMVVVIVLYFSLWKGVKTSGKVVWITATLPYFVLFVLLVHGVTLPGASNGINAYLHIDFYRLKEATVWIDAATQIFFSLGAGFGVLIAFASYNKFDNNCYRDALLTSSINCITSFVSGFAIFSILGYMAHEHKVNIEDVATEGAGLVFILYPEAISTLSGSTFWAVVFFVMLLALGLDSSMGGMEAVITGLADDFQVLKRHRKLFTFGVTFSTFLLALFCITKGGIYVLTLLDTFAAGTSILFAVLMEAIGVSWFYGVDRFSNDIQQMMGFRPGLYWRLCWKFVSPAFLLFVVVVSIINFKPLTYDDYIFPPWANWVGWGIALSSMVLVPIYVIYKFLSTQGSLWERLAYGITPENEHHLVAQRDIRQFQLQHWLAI
T1 sequence (Q01959 whole entry): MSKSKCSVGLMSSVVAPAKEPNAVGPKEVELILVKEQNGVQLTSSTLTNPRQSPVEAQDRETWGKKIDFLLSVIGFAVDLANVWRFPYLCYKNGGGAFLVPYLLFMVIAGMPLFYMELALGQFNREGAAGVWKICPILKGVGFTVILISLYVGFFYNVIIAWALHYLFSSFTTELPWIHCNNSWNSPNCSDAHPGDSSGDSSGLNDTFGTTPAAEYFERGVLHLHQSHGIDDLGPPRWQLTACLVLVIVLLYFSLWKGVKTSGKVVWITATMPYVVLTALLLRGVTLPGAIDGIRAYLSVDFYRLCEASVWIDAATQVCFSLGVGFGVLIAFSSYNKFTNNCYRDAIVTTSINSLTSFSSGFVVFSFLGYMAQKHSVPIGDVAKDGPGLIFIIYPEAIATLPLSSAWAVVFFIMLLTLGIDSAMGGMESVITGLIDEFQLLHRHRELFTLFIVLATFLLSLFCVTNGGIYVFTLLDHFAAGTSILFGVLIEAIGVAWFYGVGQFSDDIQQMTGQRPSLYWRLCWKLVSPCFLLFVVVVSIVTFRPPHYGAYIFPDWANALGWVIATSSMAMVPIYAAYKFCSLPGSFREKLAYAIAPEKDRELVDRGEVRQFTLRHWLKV

Row | SMILES | IC50 [1] | IC50 ([2]; read-out: IC50) | Activity [4] | Activity [5] | Activity [6] | IC50 ([3]; hek293) | IC50 at 72 h [11] | IC50 at 72 h [12] | IC50 at 72 h [13] | also measured
1 | [O-][S@+](Cc1cscn1)[C@H](c1ccccc1)c1ccc(Br)cc1 | 1.09 µM | 52.6 µM | Non-Toxic | Non-Toxic | Non-Toxic | – | – | – | – | IC50 ([3]; read-out: IC50): 58.6 µM
2 | [O-][S+](Cc1cncs1)C(c1ccccc1)c1ccccc1 (configuration not stated) | 4.61 µM | – | – | – | – | – | – | – | – | half-life [7]: 54 min; AUC(0-inf) [8]: 13.5 µM·h
3 | [O-][S+](Cc1nccs1)C(c1ccccc1)c1ccccc1 (configuration not stated) | 14.7 µM | – | – | – | – | Not Active | – | – | – | IC50 [9]: 420 µM
4 | [O-][S@+](Cc1cscn1)[C@@H](c1ccccc1)c1ccc(Br)cc1 | 63.7 µM | – | Non-Toxic | Non-Toxic | Non-Toxic | Not Active | – | – | – | IC50 ([2]; hek293): Not Active
5 | [O-][S@@+](Cc1cscn1)[C@@H](c1ccccc1)c1ccc(Br)cc1 | 0.65 µM | 73.3 µM | Non-Toxic | Non-Toxic | Non-Toxic | Not Active | > 100 µM | > 100 µM | > 100 µM | inhibition [10]: Active; concentration at 1 h [14]: 2200 nM; concentration at 3 h [15]: 1210 nM; concentration at 7 h [16]: 89.6 nM; concentration at 10 h [17]: 23.8 nM; concentration at 1 h [18]: 803 nM; concentration at 3 h [19]: 409 nM; concentration at 7 h [20]: 44.3 nM; Ct [21]: Bld; Activity (Rattus norvegicus [22]): inactive; Activity (Rattus norvegicus [23]): 20%; Ratio IC50 [24]: 20; Ratio IC50 [25]: 10; inhibition [26]: Active; Ratio IC50 [27]: >100; Ratio IC50 [28]: >100; Ratio IC50 [29]: >100; half-life [30]: 96 min; AUC(0-inf) [31]: 5.84 µM·h
6 | NC(=O)C[S@@+]([O-])C(c1ccccc1)c1ccccc1 [ARMODAFINIL] | – | 170 µM | – | – | – | – | – | – | – | concentration at 1 h [32]: 3900 ng/mL; half-life [7]: 24 min; AUC(0-inf) [8]: 1.18 µM·h
7 | Cc1nc(C[S+]([O-])C(c2ccccc2)c2ccccc2)cs1 (configuration not stated) | 3.25 µM | – | – | – | – | Not Active | – | – | – | IC50 [9]: 174 µM
8 | COC(=O)Nc1nc2ccc(C(=O)c3cccs3)cc2[nH]1 [NOCODAZOLE] | – | – | – | – | – | – | 2.22 µM | 0.097 µM | 0.0997 µM | Activity (Cortical neurone): Toxic
9 | CN(C)CCCN1c2ccccc2Sc2ccc(Cl)cc21 [CHLORPROMAZINE] | – | – | – | – | – | – | 7.99 µM | 9.02 µM | 13.8 µM | Activity (Cortical neurone): Non-Toxic
10 | [O-][S@@+](Cc1cscn1)[C@H](c1ccccc1)c1ccc(Br)cc1 | 2.99 µM | – | Non-Toxic | Non-Toxic | Non-Toxic | Not Active | – | – | – | IC50 ([2]; hek293): Not Active
